Experimental data taken from US11319315B2, “Cyclohexyl acid triazole azoles as LPA antagonists” (BRISTOL-MYERS SQUIBB COMPANY, priority 2017, dated 2022).

The compounds below were run against T1, human LPA1 (Homo sapiens, UniProt Q92633) (assay: LPA1 functional antagonist assay (LPA-induced calcium flux in CHO cells overexpressing human LPA1)). Conditions: inhibition of calcium flux induced by 10 nM LPA, CHO cells overexpressing human LPA1; read-out: hLPA1 IC50.
T1 construct: expressed in transfected cells; host or cells: Chinese hamster ovary (CHO) cells
T1 sequence (Q92633 whole entry): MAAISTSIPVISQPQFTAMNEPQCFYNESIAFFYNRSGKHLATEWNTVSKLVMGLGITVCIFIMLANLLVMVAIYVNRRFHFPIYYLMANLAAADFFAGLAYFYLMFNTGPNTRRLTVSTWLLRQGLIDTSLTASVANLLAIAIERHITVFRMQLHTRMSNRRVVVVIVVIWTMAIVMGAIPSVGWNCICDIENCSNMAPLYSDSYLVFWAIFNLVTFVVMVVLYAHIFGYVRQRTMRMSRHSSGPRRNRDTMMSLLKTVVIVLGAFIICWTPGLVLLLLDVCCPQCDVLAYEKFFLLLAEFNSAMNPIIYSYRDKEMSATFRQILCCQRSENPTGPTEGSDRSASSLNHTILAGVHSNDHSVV
Format: cell-based
Experimental: The effectiveness of compounds of the present invention as LPA1 inhibitors can be determined in an LPA1 functional antagonist assay as follows:
Chinese hamster ovary cells overexpressing human LPA1 were plated overnight (15,000 cells/well) in poly-D-lysine coated 384-well microplates (Greiner bio-one, Cat #781946) in DMEM/F12 medium (Gibco, Cat #11039). Following overnight culture, cells were loaded with calcium indicator dye (AAT Bioquest Inc, Cat #34601) for 30 minutes at 37° C. The cells were then equilibrated to room temperature for 30 minutes before the assay. Test compounds solubilized in DMSO were transferred to 384 well non-binding surface plates (Corning, Cat #3575) using the Labcyte Echo acoustic dispense and diluted with assay buffer [IX HBSS with calcium/magnesium (Gibco Cat #14025-092), 20 mM HEPES (Gibco Cat #15630-080) and 0.1% fatty acid free BSA (Sigma Cat #A9205)] to a final concentration of 0.5% DMSO. Diluted compounds were added to the cells by FDSS6000 (Hamamatsu) at final concentrations ranging from 0.08 nM to 5 μM. and were then incubated for 20 min at room temperature at which time LPA (Avanti Polar Lipids Cat #857130C) was added at final concentrations of 10 nM to stimulate the cells. The compound IC50 value was defined as the concentration of test compound which inhibited 50% of the calcium flux induced by LPA alone. IC50 values were determined by fitting data to a 4-parameter logistic equation (GraphPad Prism, San Diego Calif.).

SMILES	IC50 [nM]
Cc1nc(-c2nnn(C)c2Cc2nnc(C3CCCC3)o2)ccc1O[C@H]1CCC[C@H](C(=O)O)C1 [Example 75]	289
Cc1nc(-c2nnn(C)c2Cc2nnc(-c3ccccc3)o2)ccc1O[C@H]1CCC[C@H](C(=O)O)C1 [Example 76]	290
Cc1nc(-c2nnn(C)c2Cc2nnc(Cc3ccc(F)cc3)o2)ccc1O[C@H]1CCC[C@H](C(=O)O)C1 [Example 77]	260
Cc1nc(-c2nnn(C)c2C(O)c2cn(Cc3ccccc3)nn2)ccc1O[C@H]1CCC[C@H](C(=O)O)C1 (stereo partly drawn) [Example 78, (1 S,3 S)-3-((6-(5-((1-benzyl-1H-1,2,3-triazol-4-yl)(hydroxy)methyl)-1-methyl-1H-1,2,3-triazol-4-yl)-2-methylpyridin-3-yl)oxy)cyclohexane-1-carboxylic acid]	88
CCCCc1cn(Cc2c(-c3ccc(O[C@H]4CCC[C@H](C(=O)O)C4)c(C)n3)nnn2C)nn1 [Example 79, (1 S,3 S)-3-((6-(5-((4-butyl-1H-1,2,3-triazol-1-yl)methyl)-1-methyl-1H-1,2,3-triazol-4-yl)-2-methylpyridin-3-yl)oxy)cyclohexane-1-carboxylic acid]	44
Cc1nc(-c2nnn(C)c2Cn2cc(Cc3ccccc3)cn2)ccc1O[C@H]1CCC[C@H](C(=O)O)C1 [Example 80, (1 S,3 S)-3-((6-(5-((4-benzyl-1H-pyrazol-1-yl)methyl)-1-methyl-1H-1,2,3-triazol-4-yl)-2-methylpyridin-3-yl)oxy)cyclohexane-1-carboxylic acid]	15
Cc1nc(-c2nnn(C)c2Cn2cc(Cc3ccccc3)nn2)ccc1O[C@H]1CCC[C@H](C(=O)O)C1 [Example 81]	37
Cc1nc(-c2nnn(C)c2Cn2cc(C(C)C)nn2)ccc1O[C@H]1CCC[C@H](C(=O)O)C1 [Example 82]	821
Cc1nc(-c2nnn(C)c2Cn2cc(COc3ccccc3)nn2)ccc1O[C@H]1CCC[C@H](C(=O)O)C1 [Example 83]	135
Cc1nc(-c2nnn(C)c2Cn2nncc2COc2ccccc2)ccc1O[C@H]1CCC[C@H](C(=O)O)C1 [Example 84]	172
Cc1nc(-c2nnn(C)c2Cn2cc(C(=O)c3ccccc3)nn2)ccc1O[C@H]1CCC[C@H](C(=O)O)C1 [Example 85]	241
CCCc1cn(Cc2c(-c3ccc(O[C@H]4CCC[C@H](C(=O)O)C4)c(C)n3)nnn2C)nn1 [Example 86]	187
Cc1nc(-c2nnn(C)c2Cn2cc(C(O)c3ccccc3)nn2)ccc1O[C@H]1CCC[C@H](C(=O)O)C1 (stereo partly drawn) [Example 87]	363
Cc1nc(-c2nnn(C)c2Cn2cc(COC(C)(C)C)nn2)ccc1O[C@H]1CCC[C@H](C(=O)O)C1 [Example 88]	2930
Cc1nc(-c2nnn(C)c2Cn2cc(C3(O)CCCCC3)nn2)ccc1O[C@H]1CCC[C@H](C(=O)O)C1 [Example 89]	3270
CCCCc1cn(Cc2c(-c3ccc(O[C@H]4CCC[C@H](C(=O)O)C4)c(C#N)n3)nnn2C)nn1 [Example 90]	78
Cn1nnc(-c2ccc(O[C@H]3CCC[C@H](C(=O)O)C3)c(C#N)n2)c1Cn1cc(Cc2ccccc2)nn1 [Example 91]	109
Cn1nnc(-c2ccc(O[C@H]3CCC[C@H](C(=O)O)C3)c(C#N)n2)c1Cn1cc(CC2CC2)nn1 [Example 92]	110
Cn1nnc(-c2ccc(O[C@H]3CCC[C@H](C(=O)O)C3)c(C#N)n2)c1Cn1cc(CC2CCCC2)nn1 [Example 93]	60
Cn1nnc(-c2ccc(O[C@H]3CCC[C@H](C(=O)O)C3)c(C#N)n2)c1Cn1cc(CC2CCCCC2)nn1 [Example 94]	54
CCc1nc(-c2nnn(C)c2Cn2cc(Cc3ccccc3)nn2)ccc1O[C@H]1CCC[C@H](C(=O)O)C1 [Example 95]	7

Next, values leading:

IC50 [nM]	SMILES
9	CCCCc1cn(Cc2c(-c3ccc(O[C@H]4CCC[C@H](C(=O)O)C4)c(CC)n3)nnn2C)nn1 [Example 96]
8	CCc1nc(-c2nnn(C)c2Cn2cc(CC3CC3)nn2)ccc1O[C@H]1CCC[C@H](C(=O)O)C1 [Example 97]
1050	Cc1sc(NCc2c(-c3ccc(O[C@H]4CCC[C@H](C(=O)O)C4)cn3)nnn2C)nc1-c1ccccn1 [Example 98]
73	Cc1nc(-c2nnn(C)c2CNc2nc(C3CCC3)ns2)ccc1O[C@H]1CCC[C@H](C(=O)O)C1 [Example 99]
77	Cc1nc(-c2nnn(C)c2CNc2nc(C3CCCC3)ns2)ccc1O[C@H]1CCC[C@H](C(=O)O)C1 [Example 100]
483	Cc1nc(-c2nnn(C)c2CNc2nc(-c3ccccn3)ns2)ccc1O[C@H]1CCC[C@H](C(=O)O)C1 [Example 101]
98	Cc1nc(-c2nnn(C)c2CNc2nc(CC(C)C)ns2)ccc1O[C@H]1CCC[C@H](C(=O)O)C1 [Example 102]
510	Cc1nc(-c2nnn(C)c2CNc2nc(C3CC3)ns2)ccc1O[C@H]1CCC[C@H](C(=O)O)C1 [Example 103]
109	CCCc1nsc(NCc2c(-c3ccc(O[C@H]4CCC[C@H](C(=O)O)C4)c(C)n3)nnn2C)n1 [Example 104]
29	Cc1nc(-c2nnn(C)c2Cn2nnc(CC3CC3)n2)ccc1O[C@H]1CCC[C@H](C(=O)O)C1 [Example 105, (1 S,3 S)-3-((6-(5-((5-(cyclopropylmethyl)-2H-tetrazol-2-yl)methyl)-1-methyl-1H-1,2,3-triazol-4-yl)-2-methylpyridin-3-yl)oxy)cyclohexane-1-carboxylic acid]
147	Cc1nc(-c2nnn(C)c2Cn2nnnc2CC2CC2)ccc1O[C@H]1CCC[C@H](C(=O)O)C1 [Example 106, (1S,3S)-3-((6-(5-((5-(cyclopropylmethyl)-1H-tetrazol-1-yl)methyl)-1-methyl-1H-1,2,3-triazol-4-yl)-2-methylpyridin-3-yl)oxy)cyclohexane-1-carboxylic acid]
42	Cc1nc(-c2nnn(C)c2Cn2nnc(-c3ccccc3)n2)ccc1O[C@H]1CCC[C@H](C(=O)O)C1 [Example 107]
239	Cc1nc(-c2nnn(C)c2Cn2nnnc2-c2ccccc2)ccc1O[C@H]1CCC[C@H](C(=O)O)C1 [Example 108]
14	Cc1nc(-c2nnn(C)c2Cn2nnc(Cc3ccccc3)n2)ccc1O[C@H]1CCC[C@H](C(=O)O)C1 [Example 109]
207	Cc1nc(-c2nnn(C)c2Cn2nnnc2Cc2ccccc2)ccc1O[C@H]1CCC[C@H](C(=O)O)C1 [Example 110]
34	CCCCc1nnn(Cc2c(-c3ccc(O[C@H]4CCC[C@H](C(=O)O)C4)c(C)n3)nnn2C)n1 [Example 111]
176	CCCCc1nnnn1Cc1c(-c2ccc(O[C@H]3CCC[C@H](C(=O)O)C3)c(C)n2)nnn1C [Example 112]
30	CCCc1nnn(Cc2c(-c3ccc(O[C@H]4CCC[C@H](C(=O)O)C4)c(C)n3)nnn2C)n1 [Example 113]
125	CCCc1nnnn1Cc1c(-c2ccc(O[C@H]3CCC[C@H](C(=O)O)C3)c(C)n2)nnn1C [Example 114]
47	Cc1nc(-c2nnn(C)c2COc2ncn(-c3ccccc3)n2)ccc1O[C@H]1CCC[C@H](C(=O)O)C1 [Example 115, (1S,3S)-3-((2-methyl-6-(1-methyl-5-(((1-phenyl-1H-1,2,4-triazol-3-yl)oxy)methyl)-1H-1,2,3-triazol-4-yl)pyridin-3-yl)oxy)cyclohexane-1-carboxylic acid]
405	Cc1nc(-c2nnn(C)c2COc2nc(C3CC3)ns2)ccc1O[C@H]1CCC[C@H](C(=O)O)C1 [Example 116, (1S,3S)-3-((6-(5-(((3-cyclopropyl-1,2,4-thiadiazol-5-yl)oxy)methyl)-1-methyl-1H-1,2,3-triazol-4-yl)-2-methylpyridin-3-yl)oxy)cyclohexane-1-carboxylic acid]
11	Cc1nc(-c2nnn(C)c2COc2noc(CC3CC3)n2)ccc1O[C@H]1CCC[C@H](C(=O)O)C1 [Example 117, (1S,3S)-3-((6-(5-(((5-(cyclopropylmethyl)-1,2,4-oxadiazol-3-yl)oxy)methyl)-1-methyl-1H-1,2,3-triazol-4-yl)-2-methylpyridin-3-yl)oxy)cyclohexane-1-carboxylic acid]
919	CCc1nsc(NCc2c(-c3ccc(O[C@H]4CCC[C@H](C(=O)O)C4)c(C)n3)nnn2C)n1 [Example 118]
60	Cc1nc(-c2nnn(C)c2CNc2nc(C(F)(F)F)ns2)ccc1O[C@H]1CCC[C@H](C(=O)O)C1 [Example 119]
25	Cc1nc(-c2nnn(C)c2CNc2nsc(C(C)C)n2)ccc1O[C@H]1CCC[C@H](C(=O)O)C1 [Example 120]
470	Cc1nc(-c2nnn(C)c2CNc2nsc(Nc3ccccc3)n2)ccc1O[C@H]1CCC[C@H](C(=O)O)C1 [Example 121]
555	Cc1nc(-c2nnn(C)c2CNc2nnc(C(C)C)s2)ccc1O[C@H]1CCC[C@H](C(=O)O)C1 [Example 122]
1290	Cc1nc(-c2nnn(C)c2CNc2cc(C3CC3)nn2C)ccc1O[C@H]1CCC[C@H](C(=O)O)C1 [Example 123]
337	Cc1nc(-c2nnn(C)c2CNc2cnn(C(C)C)n2)ccc1O[C@H]1CCC[C@H](C(=O)O)C1 [Example 124]
627	Cc1nc(-c2nnn(C)c2CNc2cc(C(C)C)nn2C)ccc1O[C@H]1CCC[C@H](C(=O)O)C1 [Example 125]
